Measured values as given in patent publication US4346082A, “Method of employing therapeutic composition comprising ammonium or substituted ammonium compounds for treatment of alcoholism” (The Vinoxen Company, priority 1981, dated 1982).
Read-outs that look alike come from different tables or passages of the source.

Key:
neurological deficit [1] = test system: neurological deficit
Protocol: Ten minutes later the animals were placed, individually, on a rotored, rotating at 6 rpm. […] Absence of neurological deficit was similarly recorded (+) if the animal had sufficient coordination and muscular power to remain on the rotating rod for 10 seconds or more.

neurological deficit [2] = settings: i.p., fasted mice; 0.12-0.19 at 95% confidence limit
Protocol: Further, and in order to avoid physio-chemical problems that might, albeit remotely, arise if ethanol is administered orally, applicant also determined the intraperitoneal ED50 of ethanol in fasted mice.

[3] = pH of 5 weight percent aqueous salt solution; type: physicochemical; settings: 5 g salt per 100 g aqueous solution, 25° C
Protocol: For each salt, 5.000 grams of reagent grade material was weighed and added to 95.00 grams of water. […] The instrument was allowed to equilibrate for three minutes between each sample, and the electrodes were rinsed with carbonate-free deionized water. Manual temperature control was set at 25° C.

[4] = test system: ethanol-induced neurological deficit; settings: for Fraction Protected / Percent (protected): 0.6 ml/mouse
Protocol: They were deprived of food, but not water, for a period of five hours preceding the test. […] Ten minutes later the animals were tested for neurological deficit or its absence in the usual manner as described in Example 1. A separate group of fasted by non-pretreated mice served as ethanol controls.

[5] = test system: manifestations of the effects of alcohol; settings: 1 or 2 capsules of 1 gram after 1 or 2 alcoholic drinks; in some cases
Description: Throughout the specification and claims reference to an alcoholic drink means reference to an aqueous mixture of ethanol containing about 15-25 grams of ethanol per drink.

effects of alcohol [6] = test: Efficacy in altering the effects of alcohol administered to mice; type: in vivo; settings: for comparative effect on mice of ammonium thiosulfate and ammonium sulfate: series of tests in mice
Protocol: Tests of some of the compounds encompassed within the scope of this invention were carried out with mice to determine efficacy in altering the effects of alcohol administered to the test animals.

[7] = test system: ethanol-induced neurological deficit
Protocol: (§1) Neurological deficit was recorded if the animal was unable to remain on the rod for at least 10 seconds.

[8] = test system: ethanol-induced neurological deficit; settings: for Fall from rod in 10 sec. (individual mouse): 0.6 ml of 10% solution oral, 30 min before 0.5 ml 30% ethanol oral; for No. Protected/No. Treated: 0.6 ml/mouse of 10% solution oral, ethanol 0.5 ml/mouse; for effectiveness as inhibitors of ethanol-induced neurological deficit: at the dose used (0.6 ml/mouse of 10% solution)
Protocol: as §1
Each composition was prepared freshly as a 10% aqueous solution from the crystalline preparation. A dose of 0.6 ml/mouse was administered orally to 10 mice for each compound. […] A group of 10 untreated mice were used as controls.

mice [9] = settings: mouse, in vivo
rats [10] = settings: rat, in vivo
humans [11] = settings: in vivo
effects of alcohol [12] = test: Efficacy in altering the effects of alcohol in humans; settings: compared with ammonium sulfate
humans [13] = test: Toxicity in humans, repeated administration of capsules; settings: up to 20 capsules per day (1 gram/capsule) for 10 days
mice [14] = test: Acute, subacute and chronic toxicity in mice, gastric catheter
rats [15] = test: Acute, subacute and chronic toxicity in rats, gastric catheter
[16] = test system: effect of alcohol on a human brain; settings: publication DOT HS-801 208 (1974); cited from earlier work
[17] = ethanol 0.05 ml per mouse, non-pretreated
[18] = ethanol 0.10 ml per mouse, non-pretreated
[19] = ethanol 0.15 ml per mouse, non-pretreated
[20] = ethanol 0.20 ml per mouse, non-pretreated
[21] = ethanol 0.30 ml per mouse, non-pretreated
[22] = ethanol 0.50 ml per mouse, non-pretreated
[23] = ethanol 0.50 ml per mouse, ammonium thiosulfate pretreated
[24] = ethanol 0.63 ml per mouse, ammonium thiosulfate pretreated
[25] = ethanol 0.75 ml per mouse, ammonium thiosulfate pretreated
[26] = ethanol 0.87 ml per mouse, ammonium thiosulfate pretreated
[27] = ethanol 1.00 ml per mouse, ammonium thiosulfate pretreated

Compound: CCO [Ethanol, ethanol]
- ED50 (95% Limit) (neurological deficit [1]; 30% (v/v) ethanol oral, non-pretreated, 95% limit 0.13-0.22): 0.17 mL
- oral ED50 of 30% ethanol for neurological deficit, non-pretreated mice (neurological deficit [1]; 30% (v/v) ethanol, 95% fiducial limits 0.13 to 0.22 ml/mouse): 0.17 ml/mouse
- Fall from rod in 10 sec. (individual mouse) (neurological deficit [1]; ethanol 0.05 ml oral, non-pretreated): -
- Fraction Falling From Rod in 10 sec. (neurological deficit [1]; [17]): 0/5
- Percent Falling (neurological deficit [1]; [17]): 0%
- Fraction Falling From Rod in 10 sec. (neurological deficit [1]; [18]): 2/10
- Percent Falling (neurological deficit [1]; [18]): 20%
- Fraction Falling From Rod in 10 sec. (neurological deficit [1]; [19]): 4/10
- Percent Falling (neurological deficit [1]; [19]): 40%
- Fraction Falling From Rod in 10 sec. (neurological deficit [1]; [20]): 7/10
- Percent Falling (neurological deficit [1]; [20]): 70%
- Fraction Falling From Rod in 10 sec. (neurological deficit [1]; [21]): 4/5
- Percent Falling (neurological deficit [1]; [21]): 80%
- Fall from rod in 10 sec. (individual mouse) (neurological deficit [1]; ethanol 0.5 ml oral, non-pretreated): +
- Fraction Falling From Rod in 10 sec. (neurological deficit [1]; [22]): 10/10
- Percent Falling (neurological deficit [1]; [22]): 100%
- intraperitoneal ED50 of 30% ethanol (neurological deficit [2]): 0.15 ml/mouse

Compound: N.N.O=S(O)(O)=S [Ammonium thiosulfate, ammonium thiosulfate]
- pH of 5 Weight Percent Solution [3]: 5.966
- percent of pure ammonium thiosulfate required to protect 50% of the mice ([4]; 0.6 ml/mouse oral as basic dose): 3.6 (2.63-4.93%)
- Fraction Protected ([4]; 1.25% ammonium thiosulfate): 0/10
- Percent (protected) ([4]; 1.25% ammonium thiosulfate): 0%
- Fall from rod in 10 sec. (individual mouse) ([4]; 1.25% ammonium thiosulfate, 0.6 ml/mouse oral, 30% ethanol 0.5 ml/mouse): +
- Fraction Protected ([4]; 2.5% ammonium thiosulfate): 3/10
- Percent (protected) ([4]; 2.5% ammonium thiosulfate): 30%
- Fraction Protected ([4]; 5.0% ammonium thiosulfate): 7/10
- Percent (protected) ([4]; 5.0% ammonium thiosulfate): 70%
- Fraction Protected ([4]; 7.5% ammonium thiosulfate): 8/10
- Percent (protected) ([4]; 7.5% ammonium thiosulfate): 80%
- Fraction Protected ([4]; 10.0% ammonium thiosulfate): 8/10
- Percent (protected) ([4]; 10.0% ammonium thiosulfate): 80%
- additional drinks consumed without typical manifestations of the effects of alcohol [5]: up to 8 additional drinks
- comparative effect on mice of ammonium thiosulfate and ammonium sulfate (effects of alcohol [6]): approximately equally effective
- ED50 of 30% ethanol in pretreated mice ([7]; 30% (v/v) ethanol oral, ammonium thiosulfate pretreated): 0.76 ml/mouse
- oral ED50 of ethanol in ammonium thiosulfate pretreated animals ([7]; 30% (v/v) ethanol, 95% limits 0.65-0.90 ml): 0.76 mL
- increase in ethanol required to induce neurological deficit following pretreatment ([7]; ammonium thiosulfate pretreated vs non-pretreated mice): nearly five times
- Fraction Falling From Rod in 10 sec. [7, 23]: 1/10
- Percent Falling [7, 23]: 10%
- Fall from rod in 10 sec. (individual mouse) ([7]; ethanol 0.5 ml, 0.6 ml of 10% ammonium thiosulfate solution oral, 30 min before): - and +
- Fraction Falling From Rod in 10 sec. [7, 24]: 2/10
- Percent Falling [7, 24]: 20%
- Fall from rod in 10 sec. (individual mouse) ([7]; ethanol 0.63 ml, 0.6 ml of 10% ammonium thiosulfate solution oral, 30 min before): - and +
- Fraction Falling From Rod in 10 sec. [7, 25]: 4/10
- Percent Falling [7, 25]: 40%
- Fall from rod in 10 sec. (individual mouse) ([7]; ethanol 0.75 ml, 0.6 ml of 10% ammonium thiosulfate solution oral, 30 min before): + and ° and -
- Fraction Falling From Rod in 10 sec. [7, 26]: 7/10
- Percent Falling [7, 26]: 70%
- Fall from rod in 10 sec. (individual mouse) ([7]; ethanol 0.87 ml, 0.6 ml of 10% ammonium thiosulfate solution oral, 30 min before): + and -
- Fraction Falling From Rod in 10 sec. [7, 27]: 10/10
- Percent Falling [7, 27]: 100%
- Fall from rod in 10 sec. (individual mouse) ([7]; ethanol 1.00 ml, ammonium thiosulfate solution dose printed as 0.0 ml): +
- Fall from rod in 10 sec. (individual mouse) [8]: - and +
- No. Protected/No. Treated [8]: 8/10
- effectiveness as inhibitors of ethanol-induced neurological deficit [8]: highly effective
- relative potency of ammonium thiosulfate and ammonium sulfate ([8]; single test): essentially equipotent
- acute, subacute and chronic toxicity (mice [9]): low toxicity
- acute, subacute and chronic toxicity (rats [10]): low toxicity
- clinical or analytic noxious effects (humans [11]): no clinical or analytic noxious effects
- expected effect in altering the effects of alcohol ingestion in humans (effects of alcohol [12]): substantially greater

Compound: CC(=O)O [Ammonium acetate, ammonium acetate]
- pH of 5 Weight Percent Solution [3]: 6.790
- efficacy in altering the effects of alcohol in mice (effects of alcohol [6]; mice): Good results
- clinical or analytic noxious effects (humans [13]): no clinical or analytic noxious effects
- acute, subacute and chronic toxicity (mice [14]): low toxicity
- acute, subacute and chronic toxicity (rats [15]): low toxicity

Compound: N[C@@H](Cc1ccc(O)c(O)c1)C(=O)O [L-dopa]
- amethystic effect [16]: most effective amethystic agent

Compound: N.NS(=O)(=O)O [Ammonium sulfamate, ammonium sulfamate]
- pH of 5 Weight Percent Solution [3]: 5.335

Compound: Cl.N [Ammonium chloride, ammonium chloride, reference compound]
- pH of 5 Weight Percent Solution [3]: 4.761
- amethystic effect [16]: does not appear to act as an amethystic agent

Compound: ammonium sulfate
- pH of 5 Weight Percent Solution [3]: 5.263
- comparative effect on mice of ammonium thiosulfate and ammonium sulfate (effects of alcohol [6]): approximately equally effective
- Fall from rod in 10 sec. (individual mouse) [8]: - and +
- No. Protected/No. Treated [8]: 7/10
- effectiveness as inhibitors of ethanol-induced neurological deficit [8]: highly effective
- clinical or analytic noxious effects (humans [13]): no clinical or analytic noxious effects
